Source: patent US7410996B2, “3-aryloxy/thio-2,3-substituted propanamines and their use in inhibiting serotonin and norepinephrine reuptake” (Eli Lilly and Company, priority 2002, dated 2008)
Counter-ions that a name gives are not always drawn.

What was measured:
[1] = molecular target: T1, human norepinephrine transporter (Homo sapiens, UniProt P23975); experiment: [3H]-nisoxetine scintillation proximity binding assay (norepinephrine binding assay); conditions: read-out: Ki (NET)
T1 construct: isolate and amplify each of the three full-length cDNAs from an appropriate cDNA library; expressed in transfected cells; host or cells: HEK-293 cells, stably transfected (pcDNA3.1-type vector); membrane preparation
T1 sequence (P23975 whole entry): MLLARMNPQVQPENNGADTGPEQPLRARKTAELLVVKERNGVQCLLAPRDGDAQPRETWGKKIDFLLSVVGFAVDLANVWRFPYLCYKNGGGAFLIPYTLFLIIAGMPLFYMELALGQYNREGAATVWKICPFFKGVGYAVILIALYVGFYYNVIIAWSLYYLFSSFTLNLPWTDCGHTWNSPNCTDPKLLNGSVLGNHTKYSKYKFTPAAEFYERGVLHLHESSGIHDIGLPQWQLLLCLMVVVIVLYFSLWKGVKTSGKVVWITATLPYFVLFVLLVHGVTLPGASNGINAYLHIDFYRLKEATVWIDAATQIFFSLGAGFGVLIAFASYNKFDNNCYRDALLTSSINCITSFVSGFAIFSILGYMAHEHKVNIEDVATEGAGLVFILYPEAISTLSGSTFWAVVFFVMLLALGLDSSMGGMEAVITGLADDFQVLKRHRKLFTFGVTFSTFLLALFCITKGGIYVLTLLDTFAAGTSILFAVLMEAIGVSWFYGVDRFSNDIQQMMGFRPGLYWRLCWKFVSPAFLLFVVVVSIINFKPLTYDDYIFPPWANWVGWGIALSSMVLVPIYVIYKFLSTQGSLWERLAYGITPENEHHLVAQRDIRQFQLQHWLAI
Source text: (§1) Generation of Stable Cell-lines Expressing the Human Dopamine, Norepinephrine and Serotonin Transporters
(§2) Standard molecular cloning techniques were used to generate stable cell-lines expressing the human dopamine, norepinephrine and serotonin transporters. The polymerase chain reaction (PCR) was used in order to isolate and amplify each of the three full-length cDNAs from an appropriate cDNA library. Primers for PCR were designed using the following published sequence data:
Human norepinephrine transporter: GenBank M65105. Reference: Pacholczyk T, Blakely, R D and Amara S G. Expression cloning of a cocaine- and antidepressant-sensitive human noradrenaline transporter. Nature (1991) volume 350, pages 350-354. […]
Cell pastes from large scale production of HEK-293 cells expressing cloned human norepinephrine transporters were homogenized in 4 volumes 50 mM Tris-HCl containing 300 mM NaCl and 5 mM KCl, pH 7.4. […] The protein concentration of the membrane preparation was determined using a bicinchoninic acid (BCA) protein assay reagent kit (available from Pierce). […]
The microtitre plates were incubated at room temperature for 10 hours prior to reading in a Trilux scintillation counter. The results were analysed using an automatic spline fitting programme (Multicalc, Packard, Milton Keynes, UK) to provide Ki values for each of the test compounds. […]

[2] = molecular target: T2, human serotonin transporter (Homo sapiens, UniProt P31645); experiment: [3H]-citalopram scintillation proximity binding assay (serotonin binding assay); conditions: read-out: Ki (SERT)
T2 construct: isolate and amplify each of the three full-length cDNAs from an appropriate cDNA library; expressed in transfected cells; host or cells: HEK293 cells, stably transfected (pcDNA3.1-type vector); membrane preparation
T2 sequence (P31645 whole entry): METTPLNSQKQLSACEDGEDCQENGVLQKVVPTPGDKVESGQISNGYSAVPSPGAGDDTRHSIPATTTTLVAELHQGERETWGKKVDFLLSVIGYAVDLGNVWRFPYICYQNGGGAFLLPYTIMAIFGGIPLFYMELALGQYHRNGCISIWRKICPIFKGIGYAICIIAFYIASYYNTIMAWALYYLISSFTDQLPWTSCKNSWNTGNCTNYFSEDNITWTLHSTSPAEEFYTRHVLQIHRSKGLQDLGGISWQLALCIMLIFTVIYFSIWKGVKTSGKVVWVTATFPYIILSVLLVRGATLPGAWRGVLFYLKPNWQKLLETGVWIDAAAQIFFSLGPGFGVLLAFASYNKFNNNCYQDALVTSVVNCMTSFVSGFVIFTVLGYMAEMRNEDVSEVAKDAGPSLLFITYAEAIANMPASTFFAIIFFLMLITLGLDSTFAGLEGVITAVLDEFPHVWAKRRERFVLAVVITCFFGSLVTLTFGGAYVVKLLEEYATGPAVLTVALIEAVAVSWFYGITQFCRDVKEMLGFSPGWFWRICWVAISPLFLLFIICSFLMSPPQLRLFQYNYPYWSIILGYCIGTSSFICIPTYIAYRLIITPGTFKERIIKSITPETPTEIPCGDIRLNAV
Source text: as §1, §2
Human serotonin transporter: GenBank L05568. Reference: Ramamoorthy S, Bauman A L, Moore K R, Han H, Yang-Feng T, Chang A S, Ganaphthy V and Blakely R D. Antidepressant- and cocaine-sensitive human serotonin transporter: Molecular cloning, expression, and chromosomal localization. Proceedings of the National Academy of Sciences of the USA (1993) volume 90, pages 2542-2546. […]
Membrane preparation is essentially similar to that for the norepinephrine transporter containing membranes as described above. […] The protein concentration of the membrane preparation was determined using a BCA protein assay reagent kit. […]
The microtitre plates were incubated at room temperature for 10 hours prior to reading in a Trilux scintillation counter. The results were analysed using an automatic spline fitting programme Multicalc, Packard, Milton Keynes, UK) to provide Ki (nM) values for each of the test compounds. […]

## CNC[C@@H](O)[C@@H](Oc1ccc(F)c2ccccc12)c1cccc(F)c1 [Example 32, (1S,2R)-1-(4-Fluoro-naphthalen-1-yloxy)-1-(3-fluoro-phenyl)-3-methylamino-propan-2-ol Hydrochloride]
[1]
  Ki: 15.2 nM
[2]
  Ki: 1.1 nM
